Activity calls are given as the source filed them. The calls are words filed in the database; no cut-off is given here.
Columns and labels:
[1] = tested on: PC-3; test: Cytotoxicity against human PC3 cells assessed as growth inhibition after 3 days by WST-8 assay; type: functional, cell-based; conditions: PC-3, 72 h
[2] = biological target: T1, Androgen receptor (Homo sapiens) (UniProt P10275); test: Antagonist activity at androgen receptor in human MDA-kb2 cells assessed as inhibition of DHT-induced luciferase activity at 10 uM after 24 hrs by chemiluminescence assay relative to control; type: cell-based
T1 sequence (whole entry): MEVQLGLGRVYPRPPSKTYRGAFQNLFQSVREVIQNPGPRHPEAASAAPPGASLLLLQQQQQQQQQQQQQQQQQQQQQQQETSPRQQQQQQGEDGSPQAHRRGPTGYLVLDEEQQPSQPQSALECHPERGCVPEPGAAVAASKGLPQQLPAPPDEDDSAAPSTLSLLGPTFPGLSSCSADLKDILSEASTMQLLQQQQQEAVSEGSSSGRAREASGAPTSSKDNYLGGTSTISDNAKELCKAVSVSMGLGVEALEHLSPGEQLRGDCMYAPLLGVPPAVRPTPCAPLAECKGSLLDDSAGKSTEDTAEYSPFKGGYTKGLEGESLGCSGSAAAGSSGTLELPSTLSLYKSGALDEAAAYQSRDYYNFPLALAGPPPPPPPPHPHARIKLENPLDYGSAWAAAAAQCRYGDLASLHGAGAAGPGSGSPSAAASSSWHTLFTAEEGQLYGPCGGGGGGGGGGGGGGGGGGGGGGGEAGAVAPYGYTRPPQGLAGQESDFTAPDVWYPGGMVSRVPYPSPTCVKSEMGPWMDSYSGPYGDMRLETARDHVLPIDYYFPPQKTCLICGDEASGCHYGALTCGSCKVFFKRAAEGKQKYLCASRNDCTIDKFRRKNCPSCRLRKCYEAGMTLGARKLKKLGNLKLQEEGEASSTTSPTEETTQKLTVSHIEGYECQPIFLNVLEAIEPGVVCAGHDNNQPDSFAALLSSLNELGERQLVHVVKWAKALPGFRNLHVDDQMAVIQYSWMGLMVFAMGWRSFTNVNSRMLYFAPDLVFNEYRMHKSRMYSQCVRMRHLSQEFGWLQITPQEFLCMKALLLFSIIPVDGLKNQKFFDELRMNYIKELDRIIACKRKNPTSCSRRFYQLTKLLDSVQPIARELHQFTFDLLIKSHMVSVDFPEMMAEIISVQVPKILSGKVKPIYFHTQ

[3] = biological target: T2, Androgen receptor (Homo sapiens, UniProt P10275); test: Displacement of [3H]-DHT from human GST-tagged androgen receptor LBD (627 to 919) expressed in Escherichia coli HB-101 after 15 hrs by liquid scintillation counting analysis
T2 sequence (P10275 whole entry): T1 sequence (whole entry)

[4] = biological target: Androgen receptor (Mus musculus) (UniProt P19091); test: Antagonist activity at androgen receptor in mouse SC3 cells assessed as inhibition of DHT-induced cell growth at 10 uM after 3 days by CCK-8/WST-8 assay relative to control; type: cell-based; conditions: SC-3
Androgen receptor (Mus musculus), sequence (P19091 whole entry): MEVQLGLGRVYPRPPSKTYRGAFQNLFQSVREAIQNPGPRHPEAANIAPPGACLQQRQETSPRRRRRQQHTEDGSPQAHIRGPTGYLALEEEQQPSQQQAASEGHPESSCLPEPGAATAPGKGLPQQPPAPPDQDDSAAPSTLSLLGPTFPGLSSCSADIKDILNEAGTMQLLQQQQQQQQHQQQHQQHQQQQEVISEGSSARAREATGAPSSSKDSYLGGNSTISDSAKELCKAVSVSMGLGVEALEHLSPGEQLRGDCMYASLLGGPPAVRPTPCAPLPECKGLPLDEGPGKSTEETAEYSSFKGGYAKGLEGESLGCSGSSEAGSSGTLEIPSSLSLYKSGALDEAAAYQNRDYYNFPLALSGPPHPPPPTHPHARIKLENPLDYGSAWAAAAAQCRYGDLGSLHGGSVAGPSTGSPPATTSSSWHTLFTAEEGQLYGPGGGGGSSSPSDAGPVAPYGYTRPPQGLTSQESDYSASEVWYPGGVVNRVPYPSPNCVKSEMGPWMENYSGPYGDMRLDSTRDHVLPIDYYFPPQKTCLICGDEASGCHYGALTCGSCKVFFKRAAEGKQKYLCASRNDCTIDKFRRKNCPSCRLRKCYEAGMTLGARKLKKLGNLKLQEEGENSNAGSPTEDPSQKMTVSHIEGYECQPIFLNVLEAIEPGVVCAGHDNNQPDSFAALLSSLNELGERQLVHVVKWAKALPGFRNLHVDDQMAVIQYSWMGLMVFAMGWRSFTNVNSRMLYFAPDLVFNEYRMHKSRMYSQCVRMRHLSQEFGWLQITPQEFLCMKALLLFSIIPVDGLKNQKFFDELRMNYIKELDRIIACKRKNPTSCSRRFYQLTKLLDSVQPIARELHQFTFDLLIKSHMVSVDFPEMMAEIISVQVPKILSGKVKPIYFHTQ

Compound	IC50 [1] [µM]	inhibition [2]	IC50 [3] [µM]	growth inhibition (GI) [4]
CC(O)(CS(=O)(=O)c1ccc(F)cc1)C(=O)Nc1ccc(C#N)c(C(F)(F)F)c1 (stereo not drawn) [BICALUTAMIDE]	> 10			
COc1cccc(C(=O)Nc2ccc(Oc3ccc(O)cc3)cc2)c1	5.6	6%	20	
O=C(Nc1ccc(Oc2ccc(O)cc2)cc1)c1cccc(O)c1				inactive
COc1cccc(C(=O)Nc2cc(C)c(Oc3ccc(O)cc3)c(C)c2)c1	> 10	69%	5.4	
O=C(Nc1ccc(Oc2ccccc2)cc1)c1ccccc1				20%
O=C(Nc1ccc(Oc2ccc(O)cc2)cc1)c1ccc(O)cc1				inactive
COc1cccc(C(=O)Nc2ccc(Oc3ccc(O)cc3)nc2)c1		inactive	> 10	
COc1cccc(C(=O)Nc2ccc(Oc3ccc(O)cc3)c(C)c2)c1	5.7	66%	9.2	
CC(C)(O)C(=O)Nc1ccc([N+](=O)[O-])c(C(F)(F)F)c1		60%		
COc1cccc(C(=O)Nc2cnc(Oc3ccc(O)cc3)nc2)c1		inactive	> 10	
